Assay results: patent US20230114728A1 (Venatorx Pharmaceuticals, Inc., priority 2019, published 2023)
Converted amounts (≈) assume the structure as drawn.

Assays:
E. coli K12 PBP3 = target: T1, E. coli K12 PBP3 (Escherichia coli, UniProt P0AD68); assay: biochemical; type: binding
T1 construct: made in house
In short: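 A. baumannii PBP2 (2.5 μM) and PBP3 (0.2 μM) were run in 25 mM Tris pH 8.0 buffer with Tween 20; E. coli PBP3 (1.5 μM) and N. gonorrhoeae PBP2 ([…]) in 50 mM Hepes pH 8.0 buffer.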

E. coli AG100A = assay: Broth microdilution MIC in CAMHB; type: cell-based; settings: Escherichia coli, read-out: Minimum Inhibitory Concentration, E. coli AG100A
In short: (§1)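 Hyper-permeable or efflux-deficient strains serve to probe outer-membrane penetration. Growth inhibition is scored visually after 16-20 h at 37° C in CAMHB, starting from 2-8×10^5 CFU/mL.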

[1] = system: K. pneumoniae 848844 producing SHV-11 and KPC-2; assay: Broth microdilution MIC in CAMHB; type: cell-based; settings: Klebsiella pneumoniae, read-out: Minimum Inhibitory Concentration, K. pneumoniae 848844
In short: as §1

E. coli 901C = assay: Broth microdilution MIC in CAMHB; type: cell-based; settings: Escherichia coli; E. coli 901C (hyper-permeable); MHB; read-out: Minimum Inhibitory Concentration, E. coli 901C
In short: as §1

[2] = system: K. pneumoniae UMM producing SHV-5 and KPC-2; assay: Broth microdilution MIC in CAMHB; type: cell-based; settings: Klebsiella pneumoniae, read-out: Minimum Inhibitory Concentration, K. pneumoniae UMM
In short: as §1

P. aeruginosa ATCC 35151 = assay: Broth microdilution MIC in CAMHB; type: cell-based; settings: Pseudomonas aeruginosa, ATCC35151; MHB; hyper-permeable strain; read-out: Minimum Inhibitory Concentration, P. aeruginosa ATCC 35151
In short: as §1

E. coli AG100 = assay: Broth microdilution MIC in CAMHB; type: cell-based; settings: Escherichia coli; E. coli AG100 (wild-type parent); MHB; read-out: Minimum Inhibitory Concentration, E. coli AG100
In short: as §1

A. baumannii ATCC 19606 = assay: Broth microdilution MIC in CAMHB; type: cell-based; settings: Acinetobacter baumannii, ATCC19606; MHB; read-out: Minimum Inhibitory Concentration, A. baumannii ATCC 19606
In short: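 Colonies from cation-adjusted Mueller Hinton agar are grown in broth (3-5 h, 37° C), adjusted by OD600, and added at 2-8×10^5 CFU/mL to 2-fold compound dilutions. After 16-20 h at 37° C, the lowest concentration without growth is taken as MIC.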

[3] = system: K. pneumoniae SI-117 producing VIM-1; assay: Broth microdilution MIC in CAMHB; type: cell-based; settings: Klebsiella pneumoniae, read-out: Minimum Inhibitory Concentration, K. pneumoniae SI-117
In short: as §1

E. coli ATCC 25922 = assay: Broth microdilution MIC in CAMHB; type: cell-based; settings: Escherichia coli, ATCC25922; E. coli ATCC 25922; MHB; read-out: Minimum Inhibitory Concentration, E. coli 25922
In short: as §1

[4] = system: P. aeruginosa (ΔmexAB-oprM); assay: Broth microdilution MIC in CAMHB; type: cell-based; settings: Pseudomonas aeruginosa, read-out: Minimum Inhibitory Concentration, P. aeruginosa ΔmexAB-OprM
In short: as §1

E. coli D22 = assay: Broth microdilution MIC in CAMHB; type: cell-based; settings: Escherichia coli; E. coli D22 (hyper-permeable); MHB; read-out: Minimum Inhibitory Concentration, E. coli D22
In short: as §1

P. aeruginosa PAO1 = assay: Broth microdilution MIC in CAMHB; type: cell-based; settings: Pseudomonas aeruginosa, MHB, read-out: Minimum Inhibitory Concentration, P. aeruginosa PAO1
Protocol: To determine the ability of test compounds to inhibit the growth of bacterial strains, classic cell based broth microdilution minimum inhibitory concentration (MIC) assays were employed. MIC assays are performed according to CLSI methods except where otherwise noted (CLSI, 2018 and CLSI, 2019). The reference type strain E. coli ATCC 25922; the wild-type parent strain E. coli AG100; the hyper-permeable E. coli 901C and E. coli D22; and the E. coli AG100A strain lacking the acrAB efflux pump encoding genes were used to determine the ability of the PBP inhibitors to penetrate the outer membrane of gram-negative bacteria and inhibit bacterial growth. […] The P. aeruginosa ATCC 27853 and A. baumannii ATCC 19606, along with the hyper-permeable P. aeruginosa ATCC 35151 and an engineered efflux pump-compromised strain of P. aeruginosa (ΔmexAB-oprM) were used to determine the ability of PBP inhibitors to penetrate the outer membrane of P. aeruginosa and A. baumannii and assess antibacterial activity against these important gram-negative organisms.
Briefly, cryo-preserved bacterial cultures of challenge strains are streaked for isolation on appropriate agar medium, in this case cation-adjusted Mueller Hinton agar. Following incubation to allow growth of the colonies, plates are sealed with parafilm and stored refrigerated for up to two weeks. For preparation of assay inoculum and to ensure low variability, at least 5 colonies are picked from the agar plates with an inoculating loop and aseptically transferred to a culture tube containing 3 mL of cation-adjusted Mueller Hinton broth (CAMHB). The broth culture is grown for 3-5 hours at 37° C. with shaking at 200 rpm. Meanwhile, 2-fold serial dilutions of test compounds are conducted in a 96-well plate with a final volume of 75 μL per well at 2-fold the final desired concentration. After the dilution plates are set up the growing cultures are then diluted in a cuvette containing CAMHB and the optical density is measured at 600 nm. The inoculum is diluted such that 75 μL of this culture in CAMHB results in a starting bacterial concentration of 2-8×10^5 CFU/mL when added to the dilution plates. The plates are incubated for 16-20 hours for Enterobacteriaceae and Pseudomonas and 20-24 hours for Acinetobacter at 37° C. The MIC values are read visually as the lowest concentration well with no bacterial growth.

P. aeruginosa PBP3 = target: T2, P. aeruginosa PBP3 (Pseudomonas aeruginosa, UniProt G3XD46); assay: Bocillin-FL fluorescence polarization competition binding assay, P. aeruginosa PBP3; settings: fluorescence polarization competition binding assay using Bocillin-FL
T2 construct: made in house
T2 sequence (G3XD46 whole entry): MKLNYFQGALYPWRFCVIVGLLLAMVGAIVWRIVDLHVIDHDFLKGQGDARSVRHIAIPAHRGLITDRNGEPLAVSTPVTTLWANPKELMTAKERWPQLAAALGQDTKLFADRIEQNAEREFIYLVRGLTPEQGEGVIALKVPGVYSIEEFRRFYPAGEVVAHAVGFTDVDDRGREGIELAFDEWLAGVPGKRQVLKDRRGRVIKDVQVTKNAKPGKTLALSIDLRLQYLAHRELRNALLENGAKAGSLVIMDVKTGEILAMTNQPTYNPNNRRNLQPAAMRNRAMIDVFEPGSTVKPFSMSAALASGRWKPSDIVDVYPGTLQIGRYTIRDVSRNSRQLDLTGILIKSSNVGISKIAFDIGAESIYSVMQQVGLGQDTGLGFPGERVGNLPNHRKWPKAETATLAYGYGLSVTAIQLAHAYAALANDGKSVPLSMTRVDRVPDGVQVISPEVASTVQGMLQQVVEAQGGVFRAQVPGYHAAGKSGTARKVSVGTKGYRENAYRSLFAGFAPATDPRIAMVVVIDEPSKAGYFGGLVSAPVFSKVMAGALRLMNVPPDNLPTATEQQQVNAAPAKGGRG
In short: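 Inhibitor competition with Bocillin-FL for P. aeruginosa PBP3 was followed by fluorescence polarization on a Cytation3 (BioTek) reader, using g-factor 0.96, 490 nm excitation and 520 nm emission. The enzyme was at 0.75 μM and the probe at 0.1 μM in Hepes/NaCl/glycerol buffer, 80 μl per well. FP was recorded immediately after probe addition for up to 60 minutes. Potency was expressed as EC50, the concentration that reduces bound probe by 50%.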

T1 sequence (P0AD68 1-577): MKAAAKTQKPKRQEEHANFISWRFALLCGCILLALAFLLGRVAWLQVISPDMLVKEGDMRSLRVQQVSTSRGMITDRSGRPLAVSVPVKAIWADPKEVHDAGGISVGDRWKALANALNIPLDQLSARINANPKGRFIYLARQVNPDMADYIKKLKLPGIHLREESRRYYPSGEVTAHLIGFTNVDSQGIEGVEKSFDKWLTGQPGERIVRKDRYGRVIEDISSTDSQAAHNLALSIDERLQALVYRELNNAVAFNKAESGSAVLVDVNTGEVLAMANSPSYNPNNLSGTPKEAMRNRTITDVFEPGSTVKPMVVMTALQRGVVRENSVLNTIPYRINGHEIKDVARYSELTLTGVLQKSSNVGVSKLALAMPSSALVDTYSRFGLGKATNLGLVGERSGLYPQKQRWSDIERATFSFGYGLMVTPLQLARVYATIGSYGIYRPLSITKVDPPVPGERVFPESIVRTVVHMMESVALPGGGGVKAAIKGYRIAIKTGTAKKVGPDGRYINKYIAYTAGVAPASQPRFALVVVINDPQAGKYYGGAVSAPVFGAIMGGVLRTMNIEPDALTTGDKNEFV

SMILES	EC50 (E. coli K12 PBP3)	MIC (E. coli AG100A)	MIC [1]	MIC (E. coli 901C)	MIC [2]	MIC (P. aeruginosa ATCC 35151)	MIC (E. coli AG100)	MIC (A. baumannii ATCC 19606)	MIC [3]	MIC (E. coli ATCC 25922)	MIC [4]	MIC (E. coli D22)	MIC (P. aeruginosa PAO1)	P. aeruginosa PBP3 Potency (P. aeruginosa PBP3)
CCN1CCN(C(=O)NC(C(=O)N[C@H]2Cc3ccc(SC)c(C(=O)O)c3OB2O)c2csc(N)n2)C(=O)C1=O (stereo partly drawn) [Example 56, (3R)-3-(2-(2-aminothiazol-4-yl)-2-(4-ethyl-2,3-dioxopiperazine-1-carboxamido)acetamido)-2-hydroxy-7-(methylthio)-3,4-dihydro-2H-benzo[e][1,2]oxaborinine-8-carboxylic acid]	30 to 500 µM	8 to 16 µg/mL (≈ 13.9 to 27.8 µM)	32 to 64 µg/mL (≈ 55.5 to 111 µM)	0.5 to 1 µg/mL (≈ 0.867 to 1.73 µM)	8 to 16 µg/mL (≈ 13.9 to 27.8 µM)	0.5 to 1 µg/mL (≈ 0.867 to 1.73 µM)	32 to 64 µg/mL (≈ 55.5 to 111 µM)	> 128 µg/mL	32 to 64 µg/mL (≈ 55.5 to 111 µM)	32 to 64 µg/mL (≈ 55.5 to 111 µM)	32 to 64 µg/mL (≈ 55.5 to 111 µM)	8 to 16 µg/mL (≈ 13.9 to 27.8 µM)	> 128 µg/mL	–
CCN1CCN(C(=O)NC(C(=O)N[C@H]2Cc3ccc(O)c(C(=O)O)c3OB2O)c2ccccc2)C(=O)C1=O (stereo partly drawn) [Example 61, (3R)-3-(2-(4-ethyl-2,3-dioxopiperazine-1-carboxamido)-2-phenylacetamido)-2,7-dihydroxy-3,4-dihydro-2H-benzo[e][1,2]oxaborinine-8-carboxylic acid]	–	32 to 64 µg/mL (≈ 61 to 122 µM)	> 128 µg/mL	0.5 to 1 µg/mL (≈ 0.954 to 1.91 µM)	> 128 µg/mL	8 to 16 µg/mL (≈ 15.3 to 30.5 µM)	32 to 64 µg/mL (≈ 61 to 122 µM)	> 128 µg/mL	> 128 µg/mL	32 to 64 µg/mL (≈ 61 to 122 µM)	> 128 µg/mL	8 to 16 µg/mL (≈ 15.3 to 30.5 µM)	> 128 µg/mL	B (B represents a potency between 30 μM and 500 μM inclusive)
CCN1CCN(C(=O)NC(C(=O)N[C@H]2Cc3ccc(C=NOCCN)c(C(=O)O)c3OB2O)c2csc(N)n2)C(=O)C1=O (stereo partly drawn) [Example 62, (3R)-7-(((2-aminoethoxy)imino)methyl)-3-(2-(2-aminothiazol-4-yl)-2-(4-ethyl-2,3-dioxopiperazine-1-carboxamido)acetamido)-2-hydroxy-3,4-dihydro-2H-benzo[e][1,2]oxaborinine-8-carboxylic acid]	> 500 µM	32 to 64 µg/mL (≈ 51.9 to 104 µM)	> 128 µg/mL	32 to 64 µg/mL (≈ 51.9 to 104 µM)	> 128 µg/mL	8 to 16 µg/mL (≈ 13 to 26 µM)	> 128 µg/mL	> 128 µg/mL	> 128 µg/mL	> 128 µg/mL	> 128 µg/mL	32 to 64 µg/mL (≈ 51.9 to 104 µM)	> 128 µg/mL	B (B represents a potency between 30 μM and 500 μM inclusive)
CCN1CCN(C(=O)NC(C(=O)N[C@H]2Cc3ccc(SCC[N+]4(C)CCCC4)c(C(=O)O)c3OB2O)c2csc(N)n2)C(=O)C1=O.O=C([O-])C(F)(F)F (stereo partly drawn) [Example 65, 1-(2-(((3R)-3-(2-(2-aminothiazol-4-yl)-2-(4-ethyl-2,3-dioxopiperazine-1-carboxamido)acetamido)-8-carboxy-2-hydroxy-3,4-dihydro-2H-benzo[e][1,2]oxaborinin-7-yl)thio)ethyl)-1-methylpyrrolidin-1-ium 2,2,2-trifluoroacetate]	> 500 µM	32 to 64 µg/mL	> 128 µg/mL	32 to 64 µg/mL	> 128 µg/mL	8 to 16 µg/mL	> 128 µg/mL	> 128 µg/mL	> 128 µg/mL	> 128 µg/mL	> 128 µg/mL	> 128 µg/mL	> 128 µg/mL	–
CCN1CCN(C(=O)NC(C(=O)N[C@H]2Cc3ccc(SCCNCCN)c(C(=O)O)c3OB2O)c2csc(N)n2)C(=O)C1=O (stereo partly drawn) [Example 66, (3R)-7-((2-((2-aminoethyl)amino)ethyl)thio)-3-(2-(2-aminothiazol-4-yl)-2-(4-ethyl-2,3-dioxopiperazine-1-carboxamido)acetamido)-2-hydroxy-3,4-dihydro-2H-benzo[e][1,2]oxaborinine-8-carboxylic acid]	> 500 µM	32 to 64 µg/mL (≈ 49.3 to 98.7 µM)	> 128 µg/mL	32 to 64 µg/mL (≈ 49.3 to 98.7 µM)	> 128 µg/mL	8 to 16 µg/mL (≈ 12.3 to 24.7 µM)	> 128 µg/mL	> 128 µg/mL	> 128 µg/mL	> 128 µg/mL	> 128 µg/mL	32 to 64 µg/mL (≈ 49.3 to 98.7 µM)	> 128 µg/mL	–
CCN1CCN(C(=O)NC(C(=O)N[C@H]2Cc3ccc(SCCN)c(C(=O)O)c3OB2O)c2csc(N)n2)C(=O)C1=O (stereo partly drawn) [Example 67, (3R)-7-((2-aminoethyl)thio)-3-(2-(2-aminothiazol-4-yl)-2-(4-ethyl-2,3-dioxopiperazine-1-carboxamido)acetamido)-2-hydroxy-3,4-dihydro-2H-benzo[e][1,2]oxaborinine-8-carboxylic acid]	30 to 500 µM	32 to 64 µg/mL (≈ 52.9 to 106 µM)	> 128 µg/mL	0.5 to 1 µg/mL (≈ 0.826 to 1.65 µM)	32 to 64 µg/mL (≈ 52.9 to 106 µM)	0.5 to 1 µg/mL (≈ 0.826 to 1.65 µM)	> 128 µg/mL	> 128 µg/mL	32 to 64 µg/mL (≈ 52.9 to 106 µM)	32 to 64 µg/mL (≈ 52.9 to 106 µM)	32 to 64 µg/mL (≈ 52.9 to 106 µM)	8 to 16 µg/mL (≈ 13.2 to 26.4 µM)	> 128 µg/mL	–
